Results taken from the supplement of paper PMC4862054.
Several values for one entry are separate records, joined by “and”; a condition that tells them apart may be missing. Equal values may be shown once.

Key:
BT-549 [1] = assay: normalised viability (% of control), CellTiter-Blue; higher = more viable cells (about 100 = DMSO control); details: 10000 nM; incubation time: 72 h
In short: (§1)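 The reported quantity is normalised viability at a single listed concentration of the series. Compound in 5 µl medium was pre-dispensed into 384-well plates and 20 µl of breast cancer cell suspension was added for 72 h. A 2 h, 37 °C CellTiter-Blue step (2.5 µl) preceded fluorescence reading at 560/590 nm, and plates were normalised to vehicle (100) and a positive kill control (0).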

CAL-120 [2] = assay: as above; details: 10000 nM; incubation time: 72 h
In short: as §1

CAL-51 [3] = assay: as above; details: 100 nM; incubation time: 72 h
In short: as §1

CAL-85-1 [4] = assay: as above; details: 100 nM; incubation time: 72 h
In short: as §1

DU-4475 [5] = assay: as above; details: 100 nM; incubation time: 72 h
In short: as §1

HCC1143 [6] = assay: as above; details: 10000 nM; incubation time: 72 h
In short: as §1

HCC1599 [7] = assay: as above; details: 10000 nM; incubation time: 72 h
In short: as §1

HCC1937 [8] = assay: as above; details: 10000 nM; incubation time: 72 h
In short: as §1

Hs578T [9] = assay: as above; details: 10000 nM; incubation time: 72 h
In short: as §1

MDA-MB-453 = assay: as above; details: 100 nM; incubation time: 72 h
In short: as §1

MDA-MB-468 [10] = assay: as above; details: 10000 nM; incubation time: 72 h
In short: as §1

MFM-223 [11] = assay: as above; details: 10000 nM; incubation time: 72 h
In short: as §1

SK-BR-3 [12] = assay: as above; details: 10000 nM; incubation time: 72 h
In short: as §1

BT-474 = assay: drug sensitivity score (DSS), CellTiter-Blue viability (DSS (AUC-based score)); higher = stronger viability inhibition; extreme values may be limits of the assay; details: incubation time: 72 h
Protocol: (§2)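 DSRT with the CellTiter-Blue (resazurin reduction) viability readout, fluorescence 560/590 nm, 72 h incubation. Plates were normalised to DMSO and benzethonium chloride controls. DSS is computed from the area under the fitted dose-response curve (5 or 9 concentrations).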

BT-549 [13] = assay: as above; details: incubation time: 72 h
Protocol: as §2

CAL-120 [14] = assay: as above; details: incubation time: 72 h
Protocol: as §2

CAL-51 [15] = assay: as above; details: incubation time: 72 h
Protocol: as §2

CAL-85-1 [16] = assay: as above; details: incubation time: 72 h
Protocol: as §2

DU-4475 [17] = assay: as above; details: incubation time: 72 h
Protocol: as §2

HCC1143 [18] = assay: as above; details: incubation time: 72 h
Protocol: as §2

HCC1599 [19] = assay: as above; details: incubation time: 72 h
Protocol: as §2

HCC1937 [20] = assay: as above; details: incubation time: 72 h
Protocol: as §2

HDQ-P1 = assay: as above; details: incubation time: 72 h
Protocol: as §2

Hs578T [21] = assay: as above; details: incubation time: 72 h
Protocol: as §2

MDA-MB-436 = assay: as above; details: incubation time: 72 h
Protocol: as §2

MDA-MB-468 [22] = assay: as above; details: incubation time: 72 h
Protocol: as §2

MFM-223 [23] = assay: as above; details: incubation time: 72 h
Protocol: as §2

SK-BR-3 [24] = assay: as above; details: incubation time: 72 h
Protocol: as §2

Structure (SMILES): Cc1ccc(NC(=O)c2ccc(CN3CCN(C)CC3)cc2)cc1Nc1nccc(-c2cccnc2)n1 [Imatinib]
- normalised viability (BT-549 [1]): 93% and 76.6%
- normalised viability (CAL-120 [2]): 114%
- normalised viability (CAL-51 [3]): 102% and 98.4%
- normalised viability (CAL-85-1 [4]): 90.9%
- normalised viability (DU-4475 [5]): 89.4% and 111%
- normalised viability (HCC1143 [6]): 86.7% and 88.8%
- normalised viability (HCC1599 [7]): 97.8% and 103%
- normalised viability (HCC1937 [8]): 88%
- normalised viability (Hs578T [9]): 95.3% and 109%
- normalised viability (MDA-MB-453): 104% and 99.3%
- normalised viability (MDA-MB-468 [10]): 103% and 99.3%
- normalised viability (MFM-223 [11]): 105% and 98%
- normalised viability (SK-BR-3 [12]): 80.8% and 91.9%
- drug sensitivity score (BT-474): 0
- drug sensitivity score (BT-549 [13]): 0
- drug sensitivity score (CAL-120 [14]): 0
- drug sensitivity score (CAL-51 [15]): 0
- drug sensitivity score (CAL-85-1 [16]): 0
- drug sensitivity score (DU-4475 [17]): 0
- drug sensitivity score (HCC1143 [18]): 0
- drug sensitivity score (HCC1599 [19]): 0
- drug sensitivity score (HCC1937 [20]): 0
- drug sensitivity score (HDQ-P1): 0
- drug sensitivity score (Hs578T [21]): 0
- drug sensitivity score (MDA-MB-436): 0
- drug sensitivity score (MDA-MB-468 [22]): 0
- drug sensitivity score (MFM-223 [23]): 0
- drug sensitivity score (SK-BR-3 [24]): 0
